Results: patent US11034932B2, “Composition capable of promoting the growth of denitrifying microorganisms and uses thereof” (CHINA PETROLEUM & CHEMICAL CORPORATION, priority 2016, dated 2021)

test system: denitrifying microorganisms; test: AO wastewater treatment with promoter 1# plus additive (Example 2); conditions: additive (0.05-0.10 mg/L) added along with promoter 1#; process as example 1
Procedure: Hereunder the present invention will be detailed in examples. In the following examples, the COD concentration is measured with the method specified in GB11914-89 “Water Quality—Determination of Chemical Oxygen Demand—Dichromate Method”; the ammonia nitrogen concentration is measured with the method specified in GB7478-87 “Water Quality—Determination of Ammonium—Distillation and Titration Method”; the concentration of nitrite nitrogen is measured with the method specified in GB7493-87 “Water Quality—Determination of Nitrite Nitrogen—Spectrophotometric Method”; the total nitrogen concentration is measured with the method specified in GB11894-89 “Water Quality—Determination of Total Nitrogen—UV Spectrophotometric Method—Alkaline Potassium Persulfate Digestion Method”.
The wastewater is treated according to the treatment process and operating condition described in example 1, but: an additive is added in a certain amount along with the promoter 1#.
Wherein the formic acid hydroxylamine is obtained by mixing a formic acid and a hydroxylamine at 1:1 molar ratio; the acetic acid hydroxylamine is obtained by mixing an acetic acid and a hydroxylamine at 1:1 molar ratio; both of them are […] after they are prepared.

O=S([O-])[O-].[Na+].[Na+] [Na2SO3] and NCCCCNCCCN [Spermidine] are within 1.5-fold of each other in “COD in outputted water” value: 44.3 mg/L for the first, 48.4 mg/L for the second.

For NCCCNCCCCNCCCN [Spermine], the “COD in outputted water” value was 47.9 mg/L.

O=S([O-])[O-].[Na+].[Na+] [Na2SO3] and NCCCCNCCCN [Spermidine] are within 1.5-fold of each other in “NH3—N in outputted water” value: 10.0 mg/L for the first, 8.9 mg/L for the second.

NCCCNCCCCNCCCN [Spermine] was tested, and the “NH3—N in outputted water” value was 9.3 mg/L.

O=S([O-])[O-].[Na+].[Na+] [Na2SO3] and NCCCCNCCCN [Spermidine] are the same in “NO2^—N in outputted water” value: 0.2 mg/L for the first, 0.2 mg/L for the second.

For NCCCNCCCCNCCCN [Spermine], the “NO2^—N in outputted water” value was 0.1 mg/L.

O=S([O-])[O-].[Na+].[Na+] [Na2SO3] and NCCCCNCCCN [Spermidine] are within 1.5-fold of each other in “TN in outputted water” value: 18.2 mg/L for the first, 23.9 mg/L for the second.

With NCCCNCCCCNCCCN [Spermine] the “TN in outputted water” value was 21.3 mg/L.
